Results as given in patent US20240368139A1, “NOVEL MODULATORS OF EHMT1 AND EHMT2 AND THERAPEUTIC USE THEREOF” (Tango Therapeutics, Inc., priority 2021, published 2024).

How the values were obtained:
human EHMT1 982-1266 = molecular target: T1, human EHMT1 982-1266 (Homo sapiens, UniProt Q9H9B1); experiment: EHMT1 enzyme assay on histone peptide substrate (3H-SAM SPA); conditions: EHMT1 IC50, recombinant human EHMT1 982-1266, histone peptide substrate
T1 sequence (Q9H9B1 982-1266): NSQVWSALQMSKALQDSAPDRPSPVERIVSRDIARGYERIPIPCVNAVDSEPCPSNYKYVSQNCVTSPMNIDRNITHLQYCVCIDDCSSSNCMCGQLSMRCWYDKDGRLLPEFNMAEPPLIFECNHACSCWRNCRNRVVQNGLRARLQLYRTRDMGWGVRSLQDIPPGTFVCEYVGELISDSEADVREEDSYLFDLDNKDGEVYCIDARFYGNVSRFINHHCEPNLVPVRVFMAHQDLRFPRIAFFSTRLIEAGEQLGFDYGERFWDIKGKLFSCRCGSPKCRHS

human EHMT2 913-1193 = molecular target: T2, human EHMT2 913-1193 (Homo sapiens, UniProt Q96KQ7); experiment: EHMT2 enzyme assay on histone peptide substrate (3H-SAM SPA); conditions: EHMT2 IC50, recombinant human EHMT2 913-1193, histone peptide substrate
T2 sequence (Q96KQ7 913-1193): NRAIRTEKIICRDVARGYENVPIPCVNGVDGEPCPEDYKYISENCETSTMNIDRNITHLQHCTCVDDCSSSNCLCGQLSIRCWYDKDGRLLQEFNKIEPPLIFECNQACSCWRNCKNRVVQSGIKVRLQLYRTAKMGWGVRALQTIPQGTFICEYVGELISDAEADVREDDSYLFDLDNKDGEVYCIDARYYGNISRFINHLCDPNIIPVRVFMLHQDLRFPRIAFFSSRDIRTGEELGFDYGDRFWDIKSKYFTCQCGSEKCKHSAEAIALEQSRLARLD

H3K9me2 in HCT116 cells = experiment: HCT116 H3K9me2 in-cell western assay; type: cell-based; conditions: Homo sapiens, HCT-116, 72 h, HCT116 cells, 72 hours incubation; read-out: H3K9me2 ICW IC50
How it was run: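 HCT116 cells (2,000/well) were treated for 72 h at 37° C, 5% CO2, with ten two-fold dilutions from 10 μM in duplicate. After PFA fixation, cells were stained overnight at 4° C with anti-H3K9me2, then with an 800 CW secondary plus DRAQ5.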

hERG potassium channels = hERG potassium channels (Homo sapiens, UniProt Q12809); experiment: In vitro hERG assay (SyncroPatch whole-cell recording); conditions: room temperature
[1] = hERG IC50, CHO cells stably expressing hERG

Sequence of hERG potassium channels (Q12809 whole entry): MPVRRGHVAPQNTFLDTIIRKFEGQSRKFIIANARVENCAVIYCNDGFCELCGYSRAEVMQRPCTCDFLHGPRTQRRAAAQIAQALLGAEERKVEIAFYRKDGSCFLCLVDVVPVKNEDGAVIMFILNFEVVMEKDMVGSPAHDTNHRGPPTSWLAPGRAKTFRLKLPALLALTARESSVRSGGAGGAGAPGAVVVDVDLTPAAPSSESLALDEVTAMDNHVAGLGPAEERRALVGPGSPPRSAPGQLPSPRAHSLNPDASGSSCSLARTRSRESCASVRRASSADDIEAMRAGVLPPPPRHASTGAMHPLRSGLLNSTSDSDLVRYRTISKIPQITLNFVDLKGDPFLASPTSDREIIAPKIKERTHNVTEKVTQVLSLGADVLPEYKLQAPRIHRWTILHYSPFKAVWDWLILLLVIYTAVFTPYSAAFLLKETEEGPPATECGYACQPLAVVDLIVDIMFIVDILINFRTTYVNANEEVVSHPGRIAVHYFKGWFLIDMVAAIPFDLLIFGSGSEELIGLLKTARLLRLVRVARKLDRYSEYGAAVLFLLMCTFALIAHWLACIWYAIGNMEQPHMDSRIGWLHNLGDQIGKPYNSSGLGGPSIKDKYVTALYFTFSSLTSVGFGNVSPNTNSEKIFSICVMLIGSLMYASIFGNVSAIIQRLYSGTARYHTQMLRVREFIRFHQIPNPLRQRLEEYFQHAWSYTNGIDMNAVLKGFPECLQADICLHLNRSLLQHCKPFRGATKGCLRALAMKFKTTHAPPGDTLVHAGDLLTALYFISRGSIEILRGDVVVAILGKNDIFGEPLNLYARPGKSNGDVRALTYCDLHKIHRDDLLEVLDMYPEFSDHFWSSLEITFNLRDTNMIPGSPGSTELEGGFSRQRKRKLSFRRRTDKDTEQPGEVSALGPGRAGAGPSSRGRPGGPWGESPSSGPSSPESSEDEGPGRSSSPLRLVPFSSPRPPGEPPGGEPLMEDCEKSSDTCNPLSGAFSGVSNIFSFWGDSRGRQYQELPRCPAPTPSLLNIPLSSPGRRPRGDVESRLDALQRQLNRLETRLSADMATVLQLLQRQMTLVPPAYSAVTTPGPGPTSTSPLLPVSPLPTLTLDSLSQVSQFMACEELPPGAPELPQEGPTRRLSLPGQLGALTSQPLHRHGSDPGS

SMILES	IC50 (human EHMT1 982-1266) [nM]	IC50 (human EHMT2 913-1193) [nM]	IC50 (H3K9me2 in HCT116 cells) [nM]	IC50 (hERG potassium channels; hERG IC50, SyncroPatch) [nM]	IC50 (hERG potassium channels; [1]) [nM]
CNc1cc(C)nc(Nc2cc3c(c(C4=C[C@H]5CNC[C@H]5C4)c2)OCCO3)n1 (racemic) [Compound 134, N2-[5-(1,2,3,3a,6,6a-hexahydrocyclopenta[c]pyrrol-5-yl)-2,3-dihydro-1,4-benzodioxin-7-yl]-N4,6-dimethyl-pyrimidine-2,4-diamine]	100 to 500	100 to 500	100 to 500	> 10000	–
CNc1cc(C)nc(Nc2cc3c(c(C4=CCNCC(F)C4)c2F)OCC3)n1 (single isomer, unassigned) [Compound 167]	< 100	< 100	< 100	5000 to 10000	–
CNc1cc(C)nc(Nc2cc3c(c(C4=CCNCCC4)c2F)OCC3C)n1 (single isomer, unassigned) [Compound 169]	< 100	< 100	< 100	5000 to 10000	–
CNc1cc(C)nc(Nc2cc3c(c(C4=CCNCCC4)c2F)OCC3C)n1 (single isomer, unassigned) [Compound 170]	–	–	–	< 2000	–
CNc1cc(C)nc(Nc2cc3c(c(C4=CCNC(C)CC4)c2F)OCC3)n1 (single isomer, unassigned) [Compound 183]	< 100	< 100	< 100	> 10000	–
CNc1cc(C)nc(Nc2cc3c(c(C4=CCNC(C)CC4)c2Cl)OCCC3)n1 (single isomer, unassigned) [Compound 357]	< 100	< 100	< 100	5000 to 10000	–
CNc1cc(C)nc(Nc2cc3c(c(C4=CCNC(C)CC4)c2F)OCO3)n1 (single isomer, unassigned) [Compound 369]	< 100	< 100	< 100	5000 to 10000	–
CNc1cc(C)nc(Nc2cc3c(c(C4=CCNCC(O)C4)c2C)OCC3)n1 (single isomer, unassigned) [Compound 370]	< 100	< 100	–	> 10000	–
CNc1cc(C)nc(Nc2cc3c(c(C4=CCNCC(O)C4)c2F)OCC3)n1 (single isomer, unassigned) [Compound 373]	< 100	< 100	< 100	> 10000	–
CNc1cc(C)nc(Nc2cc3c(c(C4=CCNC(C)CC4)c2Cl)OCC3)n1 (single isomer, unassigned) [Compound 374]	< 100	< 100	< 100	> 10000	–
CNc1cc(C)nc(Nc2cc3c(c(C4=CCNCC(O)C4)c2Cl)OCC3)n1 (single isomer, unassigned) [Compound 384]	–	< 100	–	> 10000	–
CNc1cc(C)nc(Nc2cc3c(c(OCCCN4CCCC4)c2)OCC3)n1 [Compound 103, N^4,6-dimethyl-N^2-[7-(3-pyrrolidin-1-ylpropoxy)-2,3-dihydrobenzofuran-5-yl]pyrimidine-2,4-diamine]	100 to 500	500 to 2000	100 to 500	> 10000	–
CNc1cc(C)nc(Nc2cc3c(c(C4=CCNCCC4)c2)OCC3)n1 [Compound 110, N4,6-dimethyl-N2-[7-(2,3,4,7-tetrahydro-1H-azepin-5-yl)-2,3-dihydrobenzofuran-5-yl]pyrimidine-2,4-diamine]	< 100	< 100	< 100	> 10000	> 10000
CNc1cc(C)nc(Nc2cc3c(c(C4=CCN(C)CCC4)c2)OCC3)n1 [Compound 111, N4,6-dimethyl-N2-[7-(1-methyl-2,3,4,7-tetrahydroazepin-5-yl)-2,3-dihydrobenzofuran-5-yl]pyrimidine-2,4-diamine]	< 100	< 100	< 100	> 10000	> 10000
CNc1cc(C)nc(Nc2cc3c(c(OCCCN4CCCC4)c2)OCCC3)n1 [Compound 113, N4,6-dimethyl-N2-[8-(3-pyrrolidin-1-ylpropoxy)chroman-6-yl]pyrimidine-2,4-diamine]	100 to 500	500 to 2000	100 to 500	< 2000	–
CNc1cc(C)nc(Nc2cc(OCCCN3CCCC3)c3c(c2)OCO3)n1 [Compound 118, N4,6-dimethyl-N2-[7-(3-pyrrolidin-1-ylpropoxy)-1,3-benzodioxol-5-yl]pyrimidine-2,4-diamine]	100 to 500	500 to 2000	100 to 500	5000 to 10000	–
